Test system: rat E18 cortical neurons
Experiment: Microelectrode array recording of cultured cortical neuron network
Format: cell-based
Conditions: 3 μM
Method: Meastro 12 well plates (Axion Biosystems, Atlanta, Ga.) were treated with a solution of 0.1% polyethylenimine for 2-4 hours, rinsed with sterile H2O and let dry overnight. Prior to plating of neurons, the MEAs were treated with solution of 20 μg/ml laminin for a minimum of 1 hour.
Cortices isolated from […] (MEA) were obtained from BrainBits LLC, (Springfield, Ill.) and digested enzymatically with TrypLE Express (Gibco), After 15 minutes of digestion, the tissue was mechanically dissociated with a series of sterile fire-polished glass pipettes of decreasing diameter. The dissociated neurons were plated directly onto substrate-integrated MEA plates and incubated in Nb Active1 (Brainbits LLC, Springfield, Ill.) supplemented with 5% dialyzed fetal bovine serum, 0.25% Glutamax (Gibco). Cell cultures were maintained in tissue incubator (37° C., 6% CO2) and fed twice a week by exchanging half of the medium. The experiments were performed on DIV 19-25 thus allowing partial maturation of the neurons. Prior to the experiment, the cell culture media was replaced with external buffer containing: 129 mM NaCl, 5 mM KCl, 2 mM CaCl, 1 mM […], 10 mM HEPES, 10 mM glucose. To achieve hyper-excitation the external buffer was modified by removal of magnesium or by addition of 1 mM 4aminopyridine (4-AP).
The recordings were obtained at 37° C. using Meastro System with integrated AxIS 2.3 analysis software (Axion Biosystems, Atlanta, Ga.). Channels were sampled simultaneously with a gain of 1200× and a sampling rate of 12.5 kHz/channel. On-line spike detection was done with the AXIS adaptive spike detector. For recordings, a Butterworth band-pass filter (with a high-pass cutoff of 75 Hz and low-pass cutoff of 4000 Hz) was applied along with a variable threshold spike detector set at 7× standard deviation of the rms-noise on each channel. Only wells that did show spontaneous activity (more than 0.3 Hz) on the day planned for the experiment were treated with a compound. Burst was defined as a minimum of 5 spikes occurring with an interspike interval of less than 100 ms. A minimum of one burst per minute was required for bursting analysis. Compounds were added by manual pipetting and the activity was sampled for six minutes prior and post compound addition.
The data were normalized to baseline activity and reported as mean±standard error of the mean (SEM). For single treatment a single sample t-test was used. To compare between group effects, analysis of variance (ANOVA) with Dunnett's multiple comparison test were utilized; P<0.05 was considered significant.

SMILES: C#Cc1ccc2c(c1)C(c1ccccn1)=NCc1c(-c3cnco3)ncn1-2 [KRM-II-81, 5-(8-ethynyl-6-(pyridin-2-yl)-4H-benzo[f]imidazo[1,5-a][1,4]diazepin-3-yl)oxazole]
- frequency of bursting (hyper-excited by 1 mM 4AP, n=6, mean±SEM): 50.9±8.8 % of control
- frequency of spiking (hyper-excited by 1 mM 4AP, n=7, mean±SEM): 50.5±7.5 % of control
- frequency of bursting (hyper-excited by removal of magnesium, n=5, mean±SEM): 54.8±7.1 % of control
- frequency of spiking (hyper-excited by removal of magnesium, n=7, mean±SEM): 62.2±3.8 % of control
- frequency of spiking (normal magnesium external solution, n=7): no significant effect
- frequency of bursting (normal magnesium, n=7): no significant effect
- frequency of bursting (reduced magnesium (0.1 mM Mg++), n=4): no significant effect
- frequency of spiking (reduced magnesium (0.1 mM Mg++), n=4, p>0.05): small depression of spiking
